# Reference: patent US6593306B1, “Methods for modulation and inhibition of telomerase” (Board of Regents, The University of Texas Systems, priority 1995, dated 2003)
# “And” between values parts separate entries of the source, which are not always exact repeats. Identical values can stand only once.
# What was measured:
# Format in all cases: biochemical
# human telomerase = target: T1, human telomerase (Homo sapiens, UniProt O14746); experiment: Cell-free telomerase inhibition, conventional or modified assay not stated; conditions: for IC50: Summary values, assay variant not stated, read-out: IC50
# T1 construct: telomerase in S100 extracts of transformed human fetal kidney tumor 293 cells (a processive telomerase); endogenous in cells; host or cells: human cells, (S100 extract)
# T1 sequence (O14746 whole entry): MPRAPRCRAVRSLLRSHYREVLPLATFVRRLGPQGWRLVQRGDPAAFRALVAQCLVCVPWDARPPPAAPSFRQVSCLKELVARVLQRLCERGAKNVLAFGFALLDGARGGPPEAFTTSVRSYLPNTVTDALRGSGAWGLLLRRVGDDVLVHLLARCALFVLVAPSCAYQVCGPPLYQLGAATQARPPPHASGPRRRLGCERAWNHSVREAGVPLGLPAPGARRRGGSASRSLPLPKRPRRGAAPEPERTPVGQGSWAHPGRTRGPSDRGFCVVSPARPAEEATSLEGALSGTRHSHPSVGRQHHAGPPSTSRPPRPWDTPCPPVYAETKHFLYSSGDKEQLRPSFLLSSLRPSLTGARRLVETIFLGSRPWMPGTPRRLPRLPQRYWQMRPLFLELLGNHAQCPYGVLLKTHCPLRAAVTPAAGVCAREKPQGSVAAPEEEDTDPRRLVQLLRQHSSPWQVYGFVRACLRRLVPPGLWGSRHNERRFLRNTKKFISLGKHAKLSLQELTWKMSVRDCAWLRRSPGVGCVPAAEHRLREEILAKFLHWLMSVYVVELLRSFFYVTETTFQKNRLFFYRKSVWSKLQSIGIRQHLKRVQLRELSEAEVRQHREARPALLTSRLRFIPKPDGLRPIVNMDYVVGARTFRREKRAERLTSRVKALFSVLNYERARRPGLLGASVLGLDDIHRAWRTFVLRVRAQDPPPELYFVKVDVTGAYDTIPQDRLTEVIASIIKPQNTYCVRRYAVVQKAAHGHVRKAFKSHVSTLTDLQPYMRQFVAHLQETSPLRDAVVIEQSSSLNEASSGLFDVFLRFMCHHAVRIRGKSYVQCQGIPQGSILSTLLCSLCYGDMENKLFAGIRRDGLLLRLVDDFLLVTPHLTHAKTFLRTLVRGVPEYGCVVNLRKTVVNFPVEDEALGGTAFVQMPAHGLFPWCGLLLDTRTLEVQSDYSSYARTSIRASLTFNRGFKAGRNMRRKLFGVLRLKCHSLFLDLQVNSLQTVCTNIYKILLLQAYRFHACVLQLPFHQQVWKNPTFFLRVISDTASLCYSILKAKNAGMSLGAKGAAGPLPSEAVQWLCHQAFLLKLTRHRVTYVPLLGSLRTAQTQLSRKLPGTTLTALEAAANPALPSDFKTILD
# T1 sequence (O60832 whole entry partner): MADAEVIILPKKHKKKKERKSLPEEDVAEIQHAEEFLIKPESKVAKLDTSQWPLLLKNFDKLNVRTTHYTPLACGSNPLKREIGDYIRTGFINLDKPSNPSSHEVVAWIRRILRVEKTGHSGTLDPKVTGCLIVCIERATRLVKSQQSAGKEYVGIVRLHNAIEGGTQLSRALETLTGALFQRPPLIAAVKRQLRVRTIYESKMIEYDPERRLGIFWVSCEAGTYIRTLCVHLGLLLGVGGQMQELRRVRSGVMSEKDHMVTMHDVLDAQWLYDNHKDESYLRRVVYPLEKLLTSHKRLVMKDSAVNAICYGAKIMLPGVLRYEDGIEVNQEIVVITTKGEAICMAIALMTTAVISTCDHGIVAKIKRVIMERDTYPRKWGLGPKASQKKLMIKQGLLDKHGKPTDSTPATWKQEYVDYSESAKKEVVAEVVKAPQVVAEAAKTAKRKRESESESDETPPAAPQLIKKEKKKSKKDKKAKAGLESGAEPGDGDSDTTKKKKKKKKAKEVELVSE
# T1 sequence (Q9NPE3 whole entry partner): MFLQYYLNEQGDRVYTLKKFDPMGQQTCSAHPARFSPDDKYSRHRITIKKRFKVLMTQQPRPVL
# T1 sequence (Q9NX24 whole entry partner): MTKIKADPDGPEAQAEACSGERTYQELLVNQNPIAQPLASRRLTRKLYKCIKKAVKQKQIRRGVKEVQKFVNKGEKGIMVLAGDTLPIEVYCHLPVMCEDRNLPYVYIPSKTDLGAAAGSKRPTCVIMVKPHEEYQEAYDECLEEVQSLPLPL
# T1 sequence (Q9NY12 whole entry partner): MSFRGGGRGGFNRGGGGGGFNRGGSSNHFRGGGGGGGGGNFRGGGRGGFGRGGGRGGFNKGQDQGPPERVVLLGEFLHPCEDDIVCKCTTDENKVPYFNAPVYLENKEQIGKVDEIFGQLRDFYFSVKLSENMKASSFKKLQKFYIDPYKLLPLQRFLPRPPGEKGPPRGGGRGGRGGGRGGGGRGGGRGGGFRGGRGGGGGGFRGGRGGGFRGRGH
# Experimental: Selected nucleoside triphosphates were tested in one or both of the “conventional” or “modified” telomerase assays described in Methods using the human processive and the CHO non-processive telomerases. Initially, three chain-terminators were selected: 2′,3′-dideoxythymidine triphosphate (ddTTP), 3′-fluoro-2′,3′-dideoxythymidine triphosphate (F-ddTTP), and 3′-azido-2′-, 3′-dideoxythymidine triphosphate (AZ-ddTTP) as prototype agents to investigate whether they could inhibit telomerase activity. The three compounds are dTTP analogs without a 3′-OH group for subsequent chain elongation. They may either incorporate into the telomere sequence and terminate further chain elongation or compete directly with dTTP for the substrate binding site in the telomerase reaction. In either case, telomerase activity is inhibited.
# [1] = target: T2, human 293 cell telomerase (Homo sapiens, UniProt O14746); experiment: Modified telomerase assay (32P-dATP as radiolabeled substrate)
# T2 construct: with 20 μl of S100 enzyme extract; endogenous in cells; host or cells: 293 cells (transformed human embryonic kidney), S100 extract
# T2 sequence (O14746 whole entry): as the sequence (O14746 whole entry) above
# T2 sequence (O60832 whole entry partner): as the sequence (O60832 whole entry partner) above
# T2 sequence (Q9NPE3 whole entry partner): as the sequence (Q9NPE3 whole entry partner) above
# T2 sequence (Q9NX24 whole entry partner): as the sequence (Q9NX24 whole entry partner) above
# T2 sequence (Q9NY12 whole entry partner): as the sequence (Q9NY12 whole entry partner) above
# Experimental: (§1) Telomerase was prepared from transformed human embryonic kidney 293 cell line. Human embryonic kidney 293 cells were grown in Joklik's modified MEM niedium (Sigma, St Louis, Mo.) supplemented with 5% fetal bovine serum at 37° C. in a humidified atmosphere with 5% CO2. The cells were subcultured at 1-2×10^5 cells/ml twice a week. When the cells grew to approximately 1×10^6 cells/ml, the cells (˜2×10^9 cells) were centrifuged and transferred into polypropylene centrifuge (50 ml) tubes and kept on ice. The cells were then centrifuged in a (Beckman GS-6R) centrifuge at 1200 RPM for 10 minutes at 4° C., and resuspended in PBS. The washed cells were resuspended in 15 ml Hypobuffer Mix (10 mM HEPES, pH 8.0, 3 mM KCl, 1 mM MgCl2, 1 mM dithiothreitol, 1 μM leupeptin, 0.1 mM PMSF, 10 μM pepstatin, 0.83 μg/ml chymostatin, 0.83 μg/ml antipain, and 43.2 units/ml RNase Guard) and centrifuged. The cell pellets were resuspended in 0.75×volumes Hypobuffer [Hypobuffer Mix+40 units/ml RNase Guard (Pharmacia, N.J.) to allow the cells to swell. The cell suspensions were homogenized to allow the telomerase to “leak” into the cytosolic fraction. The lysate was then poured into new, autoclaved, 3 ml polyallomer ultracentrifuge tubes and centrifuged at 100,000×g for 1 hour at 4° C. A top lipid layer was carefully removed and discarded, and the supernatant was collected. 1/50 of the volume of 5 M NaCl was added to the clear supernatant fluid to achieve a final concentration of 0.1 M. Sterile glycerol was added until the final glycerol concentration was 20%. The enzyme solution was aliquoted into Eppendorf tubes and quickly frozen in liquid nitrogen and stored at −70° C.
# In the conventional telomerase assay, the concentrations of both non-radiolabeled nucleotides, dATP and dTTP, are 1 mM, and the concentration of the radiolabeled [^32P]dGTP is 1.56 μM. Because of the high concentration of dATP and dTTP, the standard assay may not be suitable for determining the potential telomerase inhibition of any “Adenine or Thymine” analogs. […] All other chemicals and reaction conditions are identical to the conventional assay.
# [2] = target: T2, human 293 cell telomerase; experiment: Conventional telomerase assay (32P-dGTP as radiolabel substrate); conditions: for remaining activity at 125 µM: 0.125 mM; for remaining activity at 250 µM: 0.25 mM; for remaining activity at 500 µM: 0.5 mM; for remaining activity at 1000 µM: 1.0 mM; for remaining activity at 2000 µM: 2.0 mM; for Inhibition of 293 Telomerase, Conventional Assay *dGTP: up to 2 mM
# Experimental: as §1
# The assay is based on the ability of the telomerase enzyme in the S100 fractions to recognize an 18-base DNA primer with the DNA sequence (TTAGGG)3. DNA polymerization initiates from the 3′-OH group of the oligonucleotide. By reading from its complementary internal RNA template, telomerase adds a repeated set of 5′-TTAGGG-3′ to the original 18-base primer. Non-synchronous “starts” and “terminations” among the different enzyme complexes result in a degenerative set of different length DNA primers occurring in 6-base increments. Incorporation of [α-^32P]dGTP at the guanine positions of the 5′-TTAGGG-3′ sequence allows the newly synthesized DNA fragments to be visualized by autoradiography. The resulting image forms the characteristic “ladder” structure that is used to identify telomerase activity. The images are scanned using a phosphoimager or laser densitometer (Molecular Dynamics, Sunnyvale, Calif.). Comparisons of the total volumes under the corresponding peaks are used to quantitate the total amount of [α-^32P] incorporated in the primer extension reaction.
# The telomerase assay was initiated by mixing 20 μl of 2×reaction mix (100 mM Tris-OAc, pH 8.5, 100 mM KOAc, 10 mM β-mercaptoethanol, 2 mM spermidine, 2 mM MgCl2, 2 mM dATP, 2 mM dTTP, 2 μM oligo primer, potential inhibitors of interest at the appropriate concentration, and 50 μCi [α^32-P]dGTP) with 20 μl of S100 enzyme extract. The reaction mixture was then incubated at 30° C. for 1 hour. The reaction was stopped by incubating sequentially with 50 μl of the stop solution (10 mM Tris pH 7.5, 20 mM EDTA, 0.1 mg/ml RNase A) and 50 μl of deproteinase solution (10 mM Tris pH 7.5, 0.5% SDS, 0.3 mg/ml Proteinase K). The mixture was extracted with 50% phenol/50% chloroform (v/v). The DNA was then precipitated by adding 2.5×volumes of cold EtOH and letting it stand overnight at −70° C. The DNAs were separated on an 8% polyacrylamide/7M urea denaturing gel at 1600 V for 1.5 hours. The gel was dried and exposed to Kodak XAR-5 film to gel in −70° C. Typical autoradiographic exposures required 3-14 days.
# human cancer telomerase [3] = target: T3, human cancer telomerase (Homo sapiens, UniProt O14746); experiment: Nucleoside triphosphate as telomerase substrate, dATP replaced in conventional reaction; conditions: for Substrate of 293 Telomerase: dATP analogs
# T3 construct: endogenous in cells; host or cells: human cancer cells
# T3 sequence (O14746 whole entry): as the sequence (O14746 whole entry) above
# T3 sequence (O60832 whole entry partner): as the sequence (O60832 whole entry partner) above
# T3 sequence (Q9NPE3 whole entry partner): as the sequence (Q9NPE3 whole entry partner) above
# T3 sequence (Q9NX24 whole entry partner): as the sequence (Q9NX24 whole entry partner) above
# T3 sequence (Q9NY12 whole entry partner): as the sequence (Q9NY12 whole entry partner) above
# Description: As described in Section 2, telomerase catalyzes the incorporation of dATP, dTTP and [α-^32P]dGTP into a (TTAGGG)3 primer. In order to determine whether dATP analog can be incorporated into telomere, native dATP in the standard telomerase reaction is replaced with various concentrations of dATP analogs. Following the reaction, telomeric products are isolated and analyzed as described in Section 2. Similarly, native dTTP in the standard telomerase reaction can be replaced by a structurally modified dTTP analog to test whether the dTTP analog can be used as a telomerase substrate.
# human cancer telomerase [4] = target: T3, human cancer telomerase; experiment: Nucleoside triphosphate as telomerase substrate, dGTP replaced in modified reaction; conditions: modified assay; 1 mM dTTP, 3.12 μM [α-32P]dATP
# [5] = [α-32P]dGTP 1.56 μM, TTP and dATP 1 mM
smiles,measurement,setting,value
"Nc1ncnc2c1ncn2[C@H]1CC[C@@H](COP(=O)(O)OP(=O)(O)OP(=O)(O)O)O1 [NA007, 2′,3′-Dideoxyadenosine-5′-Triphosphate]",inhibition of human telomerase activity,human telomerase; 1 mM,inhibited
same,remaining activity at 125 µM,"[1]; 0.125 mM, read-out: % of Control",0%
same,remaining activity at 250 µM,"[1]; 0.25 mM, read-out: % of Control",0%
same,remaining activity at 500 µM,"[1]; 0.5 mM, read-out: % of Control",0%
same,remaining activity at 1000 µM,"[1]; 1.0 mM, read-out: % of Control",0%
same,remaining activity at 2000 µM,"[1]; 2 mM, read-out: % of Control",0%
same,remaining activity at 125 µM,[2]; read-out: % of Control,118%
same,remaining activity at 250 µM,[2]; read-out: % of Control,116%
same,remaining activity at 500 µM,[2]; read-out: % of Control,141%
same,remaining activity at 1000 µM,[2]; read-out: % of Control,126%
same,remaining activity at 2000 µM,[2]; read-out: % of Control,133%
same,"Inhibition of 293 Telomerase, Conventional Assay *dGTP",[2],No Inhibition (up to 2 mM)
same,"incorporation into telomeric ladders, replacing dATP","human cancer telomerase [3]; conventional assay, 0.125-2 mM tested",no apparent NA007 incorporation was detected
same,Substrate of 293 Telomerase,human cancer telomerase [3],No product formed using (TTAGGG)^3 primer
"Nc1nc2c(ncn2[C@H]2C[C@H](O)[C@@H](COP(O)(=S)OP(=O)(O)OP(=O)(O)O)O2)c(=O)[nH]1 (stereo partly shown) [NA013, 2′-Deoxyguanosine-5′-O-(1-thiotriphosphate)]",IC50,human telomerase,81.5 µM
same,"incorporation into telomeric ladders, replacing dGTP",human cancer telomerase [4],incorporated
same,remaining activity at 125 µM,[2]; read-out: % of Control,75%
same,remaining activity at 250 µM,[2]; read-out: % of Control,47%
same,remaining activity at 500 µM,[2]; read-out: % of Control,0%
same,remaining activity at 1000 µM,[2]; read-out: % of Control,0%
same,remaining activity at 2000 µM,[2]; read-out: % of Control,0%
same,IC50,[2]; 293 cell telomerase,< 125 µM
same,"Inhibition of 293 Telomerase, Conventional Assay *dGTP",[2],concentration-dependent inhibition
"Nc1nc2c(ncn2[C@H]2CC[C@@H](COP(=O)(O)OP(=O)(O)OP(=O)(O)O)O2)c(=O)[nH]1 [NA020, 2′,3′-Dideoxyguanosine-5′-Triphosphate]","incorporation into telomeric ladders, replacing dGTP",human cancer telomerase [4],no apparent NA020 incorporation was detected
same,remaining activity at 12.5 µM,"[2]; 0.0125 mM, read-out: % of Control",0%
same,remaining activity at 25 µM,"[2]; 0.025 mM, read-out: % of Control",0%
same,remaining activity at 50 µM,"[2]; 0.05 mM, read-out: % of Control",0%
same,remaining activity at 100 µM,"[2]; 0.1 mM, read-out: % of Control",0%
same,remaining activity at 200 µM,"[2]; 0.2 mM, read-out: % of Control",0%
same,remaining activity at 500 µM,[2]; read-out: % of Control,0%
same,remaining activity at 1000 µM,[2]; read-out: % of Control,0%
same,IC50,[2]; [5],< 125 µM
same,concentration at which telomerase activity is completely inhibited,[2]; lowest concentration tested,≤ 12.5 µM
"Nc1ncnc2c1ccn2[C@H]1C[C@H](O)[C@@H](COP(=O)(O)OP(=O)(O)OP(=O)(O)O)O1 [NA023, 7-Deaza-2′-Deoxyadenosine-5′-Triphosphate]",IC50,human telomerase,78.5 µM
same,remaining activity at 1 µM,"[1]; 1.0 μM, read-out: % of Control",69%
same,remaining activity at 2.5 µM,"[1]; 2.5 μM, read-out: % of Control",46%
same,remaining activity at 5 µM,"[1]; 5.0 μM, read-out: % of Control",57%
same,remaining activity at 7.5 µM,"[1]; 7.5 μM, read-out: % of Control",40%
same,remaining activity at 10 µM,"[1]; 10 μM, read-out: % of Control",23%
same,remaining activity at 25 µM,"[1]; 25 μM, read-out: % of Control",4%
same,remaining activity at 50 µM,"[1]; 50 μM, read-out: % of Control",0%
same,remaining activity at 75 µM,"[1]; 75 μM, read-out: % of Control",0%
same,remaining activity at 100 µM,"[1]; 100 μM, read-out: % of Control",0%
same,IC50,"[1]; [α-32P]dATP 3.12 μM, TTP and dGTP 1 mM",8 µM
same,"Inhibition of 293 cell telomerase, modified assay",[1]; competing radioactive nucleotide 3.12 μM [α32P]dATP,concentration-dependent inhibition
same,IC50,[2]; [5],59 µM and < 100 µM
same,"Inhibition of 293 Telomerase, Conventional Assay *dGTP",[2],concentration-dependent inhibition
same,Substrate of 293 Telomerase,human cancer telomerase [3],Is a substrate Produces short telomere Substrate Inhibition
same,concentration above which no telomerase activity was detected,"human cancer telomerase [3]; dATP replaced, 1 mM TTP, 1.56 μM [α-32P]dGTP",> 1.5 mM
